Measurements from patent US20240180893A1, “METHODS OF TREATMENT OF BREAST CANCER” (AstraZeneca AB, priority 2022, published 2024).

Key:
Format in all cases: in vivo, human (post-menopausal women)
[1] = tested on: HR+, HER2− metastatic or loco-regionally recurrent breast cancer; test: SERENA-2 phase 2 study: PFS, RECIST 1.1, by Blinded Independent Central Review (BICR); settings: all patients
Text: Measures to minimise bias: randomisation and blinding. This is an open-label study. All patients will receive active treatment. As the Investigators will not be blinded to study treatments, a BICR of tumour scans will be performed to provide independent tumour response assessment in addition to response evaluation by Investigator. To reduce potential bias during the study, eligible patients will be randomly allocated at a 1:1:1:1 ratio to receive 1 of the 4 study treatments.
Blinded Independent Central Review of tumour assessments. Coded copies of all imaging assessments (regardless of modality and including unscheduled visit scans) will be sent to an appointed Contract Research Organisation (CRO) for central analysis. Results of this independent review will not be communicated to Investigators, and the management of patients will be based solely upon the results of the RECIST assessment conducted by the Investigator. The imaging scans will be reviewed by 2 independent radiologists using RECIST version 1.1 and will be adjudicated, if required (i.e., 2 reviewers will review the scans and, in case of a disagreement, adjudication is performed by a separate reviewer). The independent reviewers will be blinded to study treatment.
The BICR will be conducted on an ongoing basis throughout the study. Where possible scans will be batched, and an in-patient series of assessments read together. For each patient, the BICR will define the overall visit response (i.e., the response obtained overall at each visit by assessing TLs, NTLs, and new lesions) and no programmatic derivation of overall visit response is necessary.
Blinded independent central review of tumour response. A sensitivity analysis for the primary endpoint for this study will be based on the BICR of the radiological scans. For each patient, the BICR will define the overall visit response (i.e., the response obtained overall at each visit by assessing TLS, NTLs and new lesions) data and no programmatic derivation of visit response is necessary. PFS will be derived programmatically from the overall visit responses determined for each visit. A BICR of all patients will be performed for the final database lock for the primary analysis of PFS. The BICR will cover all available scans up to the respective DCO.
As a sensitivity analysis to the primary endpoint, the above analysis methods will be repeated based on the BICR.

[2] = tested on: HR+, HER2− metastatic or loco-regionally recurrent breast cancer; test: SERENA-2 phase 2 study: objective response rate (ORR), patients with measurable disease; settings: for Number of patients with response: includes unconfirmed responses; for Adjusted response rate (%): logistic regression, factors prior CDK4/6 inhibitor and lung and/or liver metastasis; for ORR: comparison against fulvestrant, odds ratio: odds ratio > 1 favors AZD9833; for (%) of patients with response: patients with measurable disease
Text: In embodiments the specification provides a method of treatment of hormone receptor positive (HR+), human epidermal growth factor receptor 2 negative (HER2−), metastatic or loco-regionally recurrent breast cancer, comprising administering camizestrant to a patient suffering from such cancer, characterised in that the cancer has recurred or progressed following at least one prior line of endocrine therapy, wherein the treatment delivers an improvement in objective response rate (ORR) relative to that obtainable with fulvestrant treatment. The ORR is defined as the percentage of patients with at least 1 Investigator-assessed visit response of complete response (CR) or partial response (PR) prior to any evidence of progression. Complete or partial responses are assessed according to the RECIST 1.1 criteria as detailed below. In embodiments the ORR derived from the method of treatment is at least 15.7%, for example 20.3%.
A complete response denotes the disappearance of all target lesions (TLs) since baseline. Any pathological lymph nodes selected as TLs must have a reduction in short axis to <10 mm. A partial response denotes an at least a 30% decrease in the sum of the diameters of TL, taking as reference the baseline sum of diameters. […] Further information on the evaluation of target and non-target lesions is provided below.
The objective response rate (ORR) will be compared between AZD9833 (each dose level) and fulvestrant using a logistic regression model adjusting for prior use of CDK4/6 inhibitors and presence of lung and/or liver metastases.
Secondary endpoints: objective response rate. The ORR is defined as the percentage of patients with at least 1 Investigator-assessed visit response of CR or PR prior to any evidence of progression. The ORR will be based on a subset of the FAS with measurable disease at baseline.
The ORR will be compared between AZD9833 (each dose level) and fulvestrant using a logistic regression model adjusting for prior use of CDK4/6 inhibitors and presence of lung and/or liver metastases. The results of the analysis will be presented in terms of an odds ratio for each treatment comparison together with its associated profile likelihood 90% CI and 2 sided p values (based on twice the change in log-likelihood resulting from the addition of a treatment factor to the model).

ESR1m ctDNA = test: SERENA-2 phase 2 study: changes in ESR1m ctDNA summed Variant Allele Frequency (sVAF %)
Text: FIG. 6: Changes in ESR1m ctDNA summed Variant Allele Frequency (sVAF %) by treatment group and visit comparisons (pre-treatment is a comparison of samples collected at screening and cycle 1 day 1, C×D1 are comparisons of samples collected at cycle 1 day 1 and cycle×day 1). Variants defined as ESR1m are E380Q, V422del, S463P, L536H/P/R, Y537C/D/N/S. Points represent individual patients, box represents upper quartile, median and lower quartile, whiskers represent 1.5 interquartile range. Treatment with camizestrant 75 mg and 150 mg caused a 100% or near 100% reduction in the level of ESR1m at all timepoints.
Blood and plasma samples for circulating tumour (ctDNA) and cancer antigen 15-3 (CA15-3) analyses will be collected at screening, on Day 1 and Day 15 of Cycle 1, on Day 1 of Cycles 2 to 5, 8-weekly (Day 1 of every 2nd cycle) from Week 25 (Cycle 7) to coincide with tumour imaging, at the EOT and/or disease progression.
The following samples for biomarker research are optional and will collected from patients in the study where possible as specified in the SoA (Table 6). • Paired tumour biopsy samples; pre- and on-treatment. Samples will be collected for patients with tumours amenable to biopsies in up to 12 patients per treatment group. • Additional tumour biopsy samples may be collected at time of progression. Blood samples for circulating tumour DNA. […]

Row | Compound | Hazard ratio for disease progression relative to fulvestrant ([1]; camizestrant 75 mg once daily) | Median PFS ([1]; camizestrant 75 mg once daily) [months] | Hazard ratio for disease progression relative to fulvestrant ([1]; camizestrant 150 mg once daily) | Median PFS ([1]; camizestrant 150 mg once daily) [months] | Number of patients with response ([2]; AZD9833 75 mg, N=70 with measurable disease) | Adjusted response rate (%) ([2]; AZD9833 75 mg) | ORR: comparison against fulvestrant, odds ratio ([2]; AZD9833 75 mg) | (%) of patients with response ([2]; AZD9833 75 mg) | Number of patients with response ([2]; AZD9833 150 mg, N=65 with measurable disease) | Adjusted response rate (%) ([2]; AZD9833 150 mg) | ORR: comparison against fulvestrant, odds ratio ([2]; AZD9833 150 mg) | (%) of patients with response ([2]; AZD9833 150 mg) | Reduction in the level of ESR1m (ctDNA sVAF) (ESR1m ctDNA; camizestrant 75 mg and 150 mg, all timepoints vs cycle 1 day 1) [%] | Median PFS ([1]; fulvestrant 500 mg once monthly injection) [months] | Number of patients with response ([2]; fulvestrant, N=68 with measurable disease) | Adjusted response rate (%) ([2]; fulvestrant) | (%) of patients with response ([2]; fulvestrant) | Reduction in ESR1m ctDNA (ESR1m ctDNA; fulvestrant arm, compared with camizestrant)
1 | C[C@@H]1Cc2c(ccc3[nH]ncc23)[C@@H](c2ccc(NC3CN(CCCF)C3)cn2)N1CC(F)(F)F [camizestrant, N-(1-(3-fluoropropyl)azetidin-3-yl)-6-((6S,8R)-8-methyl-7-(2,2,2-trifluoroethyl)-6,7,8,9-tetrahydro-3H-pyrazolo[4,3-f]isoquinolin-6-yl)pyridin-3-amine] | 0.56 | 7.4 | 0.47 | 12.7 | 11 | 15.7 | 1.43 | (15.7) % | 13 | 20.3 | 1.96 | (20.0) % | ~100 |  |  |  |  | 
2 | C[C@]12CC[C@@H]3c4ccc(O)cc4C[C@@H](CCCCCCCCC[S+]([O-])CCCC(F)(F)C(F)(F)F)[C@H]3[C@@H]1CC[C@@H]2O (stereo partly drawn) [fulvestrant, reference compound] |  |  |  |  |  |  |  |  |  |  |  |  |  | 3.7 | 8 | 11.5 | (11.8) % | the extent of the reduction is lower than that observed with camizestrant
